Assay results reported in ChEMBL document CHEMBL1155670, “Identification of deoxymiroestrol as the actual rejuvenating principle of "Kwao Keur", Pueraria mirifica. The known miroestrol may be an artifact” (J Nat Prod, 2000).
Calls of active or inactive are those of the source. The calls are words filed in the database; no cut-off is given here.

Assays:
[1] = tested on: MCF7; assay: Growth promoting activity in human MCF7 cells after 7 days by colorimetric methylene blue assay in presence of Toremifene; format: functional, cell-based
[2] = tested on: MCF7; assay: Growth promoting activity in human MCF7 cells at >10 nM after 7 days by colorimetric methylene blue assay in presence of Toremifene; format: functional, cell-based

Structure (SMILES): CC1(C)[C@@H]2C[C@]3(O)CC(=O)[C@@H](C4=COc5cc(O)ccc5[C@H]41)[C@@H]2[C@H]3O
- Activity [1]: Active
- Activity [2]: Active

Structure (SMILES): CC1(C)[C@@H]2C[C@]3(O)CC(=O)[C@@](O)(C4=COc5cc(O)ccc5[C@H]41)[C@@H]2[C@H]3O
- Activity [1]: Active
- Activity [2]: Active
